# Assay results taken from patent publication US20150157645A1, “COMBINATION OF A 17-ALPHA-HYDROXYLASE (C17,20-LYASE) INHIBITOR AND A SPECIFIC PI-3K INHIBITOR FOR TREATING A TUMOR DISEASE” (priority 2012, published 2015).
# Marks after values point to notes of the source that are not given here.
# Experiments:
# [1] = system: human prostate VCap xenograft; assay: human prostate VCap xenograft model in SCID mice (studies MIS-32S-12 and MIS-59FVA-12); conditions: for ΔTumor volume (mm^3): mean ± SEM
# Description: (§1) Recently, in vivo anti-tumor efficacy of 1-(2-Chloro-pyridin-4-yl)-3-(4-methyl-pyridin-3-yl)-imidazolidin-2-one was evaluated alone and in combination with COMPOUND C or its hydrochloride salt (a pan PI3K inhibitor) in two human prostate cancer xenograft models, VCap and LnCap, established in SCID mice. The VCap tumors which, express PTEN and over-express wild type AR, were established in chemically-castrated mice. The LnCap tumors which, express mutant AR (T877A) and are PTEN null, were initially established in non-castrated animals which were chemically-castrated at the time of treatment.
# [2] = system: human prostate LNCap xenograft; assay: human prostate LnCap xenograft model in SCID mice (study MIS-43P-12); type: in vivo; set-up: Average / Delta avg: unit not given here; conditions: D 300 mg/kg bid, C 30 mg/kg qd; for anti-tumor response (in words): LnCap, single agent, AA 100 mg/kg bid; for T/C [%] / Delta avg / Average: po, C/D 30/300 qd/bid; for Delta avg: change of average tumor volume
# Description: as §1
# [3] = MIS-32S-12, Day 14, p.o., D 300 mg/kg bid, AA 100 mg/kg bid, C 30 mg/kg qd, C + D 30 qd + 300 bid
# [4] = MIS-32S-12, Day 35, p.o., D 300 mg/kg bid, AA 100 mg/kg bid, C 30 mg/kg qd, C + D 30 qd + 300 bid
# [5] = MIS-32S-12, Day 35, p.o., D 300 mg/kg bid, AA 100 mg/kg bid, C 30 mg/kg qd, C + D 30 mg/kg qd + 300 mg/kg bid
# [6] = MIS-59FVA-12, Day 14, p.o., D 300 mg/kg bid, C 30 mg/kg qd, C + D 30 qd + 300 bid (so in the source)
# [7] = MIS-59FVA-12, Day 14, p.o., D 300 mg/kg bid, C 30 mg/kg qd (so in the source)
# [8] = MIS-59FVA-12, Day 23, p.o., D 300 mg/kg bid, C 30 mg/kg qd, C + D 30 qd + 300 bid (so in the source)
# [9] = MIS-59FVA-12, Day 23, p.o., D 300 mg/kg bid, C 30 mg/kg qd (so in the source)
# [10] = MIS-43P-12, day 0 of treatment, E 100 mg/kg bid
# [11] = MIS-43P-12, day 4 of treatment, E 100 mg/kg bid
# [12] = MIS-43P-12, day 11 of treatment
# [13] = MIS-43P-12, day 14 of treatment, E 100 mg/kg bid
# [14] = MIS-43P-12, day 18 of treatment, E 100 mg/kg bid
# [15] = MIS-43P-12, day 0, E 100 mg/kg bid
# [16] = MIS-43P-12, day 4, E 100 mg/kg bid
# [17] = MIS-43P-12, day 14, E 100 mg/kg bid
# [18] = MIS-43P-12, day 18, E 100 mg/kg bid
# [19] = tumor volume (FIG. 3a), MIS-43P-12, day 0 of treatment, E 100 mg/kg bid
# [20] = tumor volume, MIS-43P-12, day 4 of treatment, E 100 mg/kg bid
# [21] = tumor volume, MIS-43P-12, day 7 of treatment
# [22] = tumor volume, MIS-43P-12, day 11 of treatment
# [23] = tumor volume, MIS-43P-12, day 14 of treatment, E 100 mg/kg bid
# [24] = tumor volume, MIS-43P-12, day 18 of treatment, E 100 mg/kg bid
Structure (SMILES),"ΔTumor volume (mm^3) [1, 3]","ΔTumor volume (mm^3) [1, 4]","T/C [%] [1, 5]","ΔTumor volume (mm^3) [1, 6]","T/C [%] [1, 7]","ΔTumor volume (mm^3) [1, 8]","T/C [%] [1, 9]",anti-tumor response (in words) [2],"T/C [%] [2, 10]","T/C [%] [2, 11]","T/C [%] ([2]; MIS-43P-12, day 7 of treatment)","T/C [%] [2, 12]","T/C [%] [2, 13]","T/C [%] [2, 14]","Delta avg [2, 15]","Delta avg [2, 16]","Delta avg ([2]; MIS-43P-12, day 7)","Delta avg ([2]; MIS-43P-12, day 11)","Delta avg [2, 17]","Delta avg [2, 18]",also measured
"Nc1cc(C(F)(F)F)c(-c2cc(N3CCOCC3)nc(N3CCOCC3)n2)cn1 [Compound C, 5-(2,6-di-morpholin-4-yl-pyrimidin-4-yl)-4-trifluoromethyl-pyridin-2-ylamine]",−18.9 ± 6.3 mm^3,23.3 ± 21.6 mm^3,5.0*^;$ %,3.6 ± 7.6 mm^3,4.0%*,25.6 ± 16.4 mm^3,12.4* %,marginal tumor growth delay,100%,56%,71%,86%,75%,79%,0,29,88,198,261,375,"Regression (printed in T/C column) ([1]; MIS-32S-12, Day 14, p.o., C 30 mg/kg qd, C + D 30 mg/kg qd + 300 mg/kg bid): 13.8%*; Survival (alive/total) [1, 3]: 7/7; Survival (alive/total) [1, 4]: 7/7; Survival (alive/total) [1, 6]: 7/7; Survival (alive/total) [1, 8]: 7/7; anti-tumor response (in words) ([1]; VCap, single agent 20 mg/kg qd): tumor growth delay; anti-tumor response (in words) ([1]; VCap, single agent 30 mg/kg qd): tumor regression; Average [2, 19]: 170; Average [2, 20]: 199; Average [2, 21]: 258; Average [2, 22]: 369; Average [2, 23]: 432; Average [2, 24]: 546"
"Cc1ccncc1N1CCN(c2ccnc(Cl)c2)C1=O [Compound D, 1-(2-Chloro-pyridin-4-yl)-3-(4-methyl-pyridin-3-yl)-imidazolidin-2-one]",35.6 ± 10.5 mm^3,303.9 ± 57.3 mm^3,65.2*^;$;# %,36.3 ± 17.0 mm^3,40.3* %,79.8 ± 20.1 mm^3,38.7*^;# %,marginal tumor growth delay,100%,82%,60%,85%,57%,67%,0,43,73,197,200,317,"T/C [%] ([1]; MIS-32S-12, Day 14, p.o., D 300 mg/kg bid, AA 100 mg/kg bid, C 30 mg/kg qd, C + D 30 mg/kg qd + 300 mg/kg bid): 27.2*^$ %; anti-tumor response (in words) ([1]; two separate VCap experiments, single agent, D 300 mg/kg bid, AA 100 mg/kg bid): either slight tumor regression or tumor stasis initially, followed by tumor growth delay; Average [2, 19]: 174; Average [2, 20]: 217; Average [2, 21]: 248; Average [2, 22]: 372; Average [2, 23]: 375; Average [2, 24]: 491"
